{"source": "paper PMC10021052", "about": "“Novel multivalent S100A8 inhibitory peptides attenuate tumor progression and metastasis by inhibiting the TLR4-dependent pathway” (Cancer Gene Therapy, 2023)", "key": {"[1]": {"test_system": "S100A8-mediated cell migration", "settings": "ref [8]; cited from earlier work", "text": "VEGF is another NFκB-mediated re ..."}, "CD8+ cells": {"test_system": "CD8+ cells", "settings": "LLC-tumor-bearing mice; ref [8]; cited from earlier work"}, "TLR4": {"test_system": "TLR4", "settings": "ref [33], [34]; cited from earlier work", "text": "The difference between TAK-242 and our inhibitory peptides is the target molecules. […] Qin et al. previously generated two peptibodies, peptide-Fc fusion proteins, targeting mouse MDSCs using a competitive peptide phage display platform. Peptibodies recognize the cell surface of mouse MDSCs. Although peptibodies also recognize S100A9, mouse MDSCs ar ..."}, "[2]": {"test_system": "SW480-transplanted xenograft", "assay": "Tumor growth in SW480-transplanted xenograft model", "assay_type": "in vivo, Balb nu/nu mice", "settings": "SW480 xenograft, various concentrations every 3 days, *P < 0.05 vs control"}, "TLR4/MD-2 complex": {"target": "T1, TLR4/MD-2 complex (Homo sapiens, UniProt O00206+Q9Y6Y9)", "T1 construct": "TLR4/MD-2 recombinant protein (2 µg/ml) was added to each well", "T1 sequence (O00206 24-631 limits assumed)": "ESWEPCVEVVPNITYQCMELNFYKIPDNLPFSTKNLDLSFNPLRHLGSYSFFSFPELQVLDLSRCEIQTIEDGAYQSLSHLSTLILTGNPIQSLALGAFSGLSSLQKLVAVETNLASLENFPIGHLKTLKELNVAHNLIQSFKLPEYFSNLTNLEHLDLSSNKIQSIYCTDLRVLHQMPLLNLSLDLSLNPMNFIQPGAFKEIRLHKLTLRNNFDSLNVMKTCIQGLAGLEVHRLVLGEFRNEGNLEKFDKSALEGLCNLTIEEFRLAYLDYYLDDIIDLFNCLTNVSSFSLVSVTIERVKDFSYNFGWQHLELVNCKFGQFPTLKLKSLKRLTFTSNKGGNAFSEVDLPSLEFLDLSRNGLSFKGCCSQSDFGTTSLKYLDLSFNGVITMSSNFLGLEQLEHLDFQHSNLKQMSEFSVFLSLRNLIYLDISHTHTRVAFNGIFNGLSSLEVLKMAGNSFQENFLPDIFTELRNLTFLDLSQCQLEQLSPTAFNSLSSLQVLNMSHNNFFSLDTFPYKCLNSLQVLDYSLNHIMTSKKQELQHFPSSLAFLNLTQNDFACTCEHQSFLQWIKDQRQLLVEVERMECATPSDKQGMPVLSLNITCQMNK", "T1 sequence (Q9Y6Y9 17-160 partner limits assumed)": "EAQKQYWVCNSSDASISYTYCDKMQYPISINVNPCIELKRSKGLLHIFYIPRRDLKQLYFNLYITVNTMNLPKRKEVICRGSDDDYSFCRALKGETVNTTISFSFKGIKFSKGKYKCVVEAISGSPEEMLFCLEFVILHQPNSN", "assay": "TLR4/MD-2 binding to immobilized tetravalent ILVIK (ELISA)", "settings": "various TLR4/MD-2 concentrations, one representative of three experiments (Fig. 7F)", "procedure": "S100A8 recombinant protein was purified as previously described. These proteins were immobilized on Maxisorp plates (Thermo Fisher Scientific, Waltham, MA, USA), followed by blocking with protein-free blocking buffer (Thermo Fisher Scientific). TLR4/MD-2 recombinant proteins with various concentrations of candidate peptides were then added to the indicated S100A8-immobilized ELISA plates for 2 h. The plates were washed, incubated with anti-TLR4 antibody, and HRP-conjugated secondary antibody, followed by the addition of substrate. The reaction was stopped by addition a 2N H2SO4 solution. Absorbance OD450/OD650 was measured using a microplate reader (Thermo Fisher Scientific). Maxisorp plates were also used for peptide coating. After blocking with protein-free blocking buffer, the coated plates were washed, and TLR4/MD-2 recombinant protein (2 µg/ml) was added to each well. The plates were incubated with a TLR4 antibody followed by horseradish peroxidase (HRP)-labeled anti-rabbit IgG. […] The amount of interleukin-8 (IL-8) or VEGF in the supernatants were analyzed by ELISA kits (R&D Systems, Mineapolis, MN) according to the manufacturer’s instructions.\nFig. 7 Isolation of multivalent S100A8 inhibitory peptides using divalent peptide libraries based on the sequences of peptide3A5. […] The binding affinities to TLR4/MD-2 complex were determined using an ELISA-based assay. […]"}, "[3]": {"test_system": "tumor cells and macrophages", "assay": "Cytokine/chemokine induction in tumor cells and macrophages", "assay_type": "cell-based", "settings": "possible mechanism scheme, Fig. 7I"}, "human TLR4/MD-2 complex": {"test_system": "human TLR4/MD-2 complex", "assay": "ELISA, TLR4/MD-2 binding to immobilized S100A8-derived peptides (overlapping peptides, alanine scan)", "settings": "ELISA, peptide immobilized, TLR4/MD-2 2 µg/ml", "procedure": "(§1) S100A8 recombinant protein was purified as previously described. These proteins were immobilized on Maxisorp plates (Thermo Fisher Scientific, Waltham, MA, USA), followed by blocking with protein-free blocking buffer (Thermo Fisher Scientific). TLR4/MD-2 recombinant proteins with various concentrations of candidate peptides were then added to the indicated S100A8-immobilized ELISA plates for 2 h. The plates were washed, incubated with anti-TLR4 antibody, and HRP-conjugated secondary antibody, followed by the addition of substrate. The reaction was stopped by addition a 2N H2SO4 solution. Absorbance OD450/OD650 was measured using a microplate reader (Thermo Fisher Scientific). Maxisorp plates were also used for peptide coating. After blocking with protein-free blocking buffer, the coated plates were washed, and TLR4/MD-2 recombinant protein (2 µg/ml) was added to each well. The plates were incubated with a TLR4 antibody followed by horseradish peroxidase (HRP)-labeled anti-rabbit IgG. For detection of IL8 and VEGF in culture supernatants, SW480 cells were pretreated with the indicated peptides, and followed by stimulation with S100A8 for 24 h. The amount of interleukin-8 (IL-8) or VEGF in the supernatants were analyzed by ELISA kits (R&D Systems, Mineapolis, MN) according to the manufacturer’s instructions.\n(§2) Fig. 2 Identification of S100A8 binding sites to human TLR4/MD-2. […] TLR4/MD-2 recombinant proteins were immobilized to the ELISA plate. After blocking, a full length or deletion mutant of S100A8 was added to the plate. The more detailed methods are described in Materials and Methods. […] B A series of overlapping S100A8 synthetic peptides. The TLR4/MD-2 recombinant proteins were added to each well of peptide immobilized plates. The affinity to TLR4/MD-2 was determined. Data are shown as mean ± SD. C The competitive activity was determined using ELISA. Data are shown as mean ± SD. D The TLR4/MD-2 was mixed with S100A8 with/without the indicated peptides, and immunoprecipitated using an anti-TLR4 antibody. TLR4 or S100A8 was visualized. Similar results were obtained in three independent experiments. […] Total RNAs from SW480 cells with/without treatment of the peptide candidates were extracted and qPCR analysis was performed using relevant primer sets and SYBR green. Relative expression levels were compared. […] TEXT PRINTED IN THE PICTURE: (A) Full length: TLR4/MD-2 binding: + | (A) S100A8-ΔC: TLR4/MD-2 binding: − | (A) S100A8-N: TLR4/MD-2 binding: −\nFig. 3 Identification of high affinity peptides to TLR4/MD-2 using alanine scanning based on the peptide #3 amino acid sequences. A Lists of peptides used for alanine scanning. […] Similar results were obtained in three independent experiments."}, "S100A8-TLR4/MD-2 complex": {"test_system": "S100A8-TLR4/MD-2 complex", "assay": "Competitive inhibition of S100A8-TLR4/MD-2 binding (ELISA, S100A8 immobilized; also immunoprecipitation)", "set-up": "species or system human", "settings": "ELISA (Fig. 2C), immunoprecipitation with anti-TLR4 antibody (Fig. 2D)", "procedure": "as §1, §2\n(§3) Fig. 4 Improvement of competitive inhibition activity by divalent peptide3A5. A The binding capacity was measured at the indicated concentration using an ELISA-based assay. Similar results were obtained in three independent experiments. B SW480 cells were pretreated with 2.5 µM of divalent peptide3A5, and then stimulated with human S100A8 recombinant protein. After 30 min, cell lysates were subjected to western blotting using the indicated antibody. The divalent peptide#3 or peptide3A5 reduced the expression of S100A8-mediated IL-8 (C) and VEGF (D) induction. Total RNAs from SW480 cells with/without treatment of the peptide candidates were extracted and qPCR analysis was performed using relevant primer sets and SYBR green. Relative expression levels were compared. Peptide #3 suppresses S100A8-mediated IL-8(E) and VEGF (F) secretion in SW480 cells."}, "SW480 cells [4]": {"test_system": "SW480 cells", "assay": "qPCR, S100A8-mediated IL-8 and VEGF mRNA induction in SW480 cells", "assay_type": "cell-based, human", "procedure": "SW480 cells were treated with S100A8 in Dulbecco’s Modified Eagle Medium/HamF12 supplemented with 0.1% bovine serum albumin for cytokine induction. Total RNA was extracted using the RNeasy Mini Plus (Qiagen, Hilden, Germany). Complementary DNA was synthesized using the PrimeScript 1st Strand Synthesis kit (Takara Bio, Japan). Quantitative PCR (qPCR) analysis was performed using the PowerUp^TM SYBR^TM Green mixture (Thermo Fisher Scientific) and the StepOnePlus Real Time PCR System (Thermo Fisher Scientific). Gene expression levels were calculated from Ct values, and the relationship between the Ct value and the logarithm of the copy number of a target gene was confirmed to be on a linear line using the corresponding isolated DNA and its serial dilutions as a standard. Thus, the gene expression levels of IL-8 and VEGF were normalized against that of β-actin in each sample. The following primers were used; β-actin, 5′-[…]-3′ and 5′-[…]-3′; IL-8, 5′-[…]-3′ and 5′-[…]-3′; VEGF, 5′-[…]-3′ and 5′-[…]-3′.\nas §2, §3"}, "SW480 cells [5]": {"test_system": "SW480 cells", "assay": "ELISA, IL-8 and VEGF secretion of SW480 cells", "assay_type": "cell-based, human", "settings": "peptide pretreatment, S100A8 24 h, supernatant ELISA, *P < 0.05 vs S100A8", "procedure": "as §1"}, "SW480 cells [6]": {"test_system": "SW480 cells", "assay": "S100A8-mediated cell migration of SW480 cells", "assay_type": "cell-based, human", "settings": "Supplementary Fig. 1B"}}, "note": "Positions of bridges follow the written chain, without caps; N, C: chain ends. Non-standard residues stand in square brackets, D forms with d. Residues, ends and D or L forms follow the SMILES beside them. Chains are numbered I, II in the order given. ξ: configuration not given here. ξK = NCCCCC(N)C(=O)O; Ahx = NCCCCCC(=O)O", "data": [{"compound": "CCCCCC/C=C\\CCCCCCCCCC(=O)N[C@H]1[C@H](OC[C@H]2O[C@H](OP(=O)(O)O)[C@H](NC(=O)CC(=O)CCCCCCCCCCC)[C@@H](OCCCCCCCCCC)[C@@H]2O)O[C@H](COC)[C@@H](OP(=O)(O)O)[C@@H]1OCC[C@@H](CCCCCCC)OC", "note": "[Eritoran, reference compound]", "values": [{"measurement": "S100A8-mediated cell migration, Eritoran", "setting": "[1]", "result": "inhibited S100A8-mediated cell migration"}, {"measurement": "intratumoral infiltration of CD8+ cells, Eritoran", "setting": "CD8+ cells", "result": "increased intratumoral infiltration of CD8^+ cells"}]}, {"compound": "CCOC(=O)C1=CCCC[C@H]1S(=O)(=O)Nc1ccc(F)cc1Cl", "note": "[TAK-242, ethyl (6R)-6-[N-(2-Chloro-4-fluorophenyl)sulfamoyl]cyclohex-1-ene-1-carboxylate]", "values": [{"measurement": "TLR4 inhibition, site", "setting": "TLR4", "result": "inhibits TLR4 at intracellular domains"}]}, {"compound": "CC[C@H](C)[C@H](NC(C)=O)C(=O)N[C@@H](CC(C)C)C(=O)N[C@H](C(=O)N[C@H](C(=O)N[C@@H](CCCCN)C(=O)NCCCCCC(=O)NCCCCC(NC(=O)CCCCCNC(=O)[C@H](CCCCN)NC(=O)[C@@H](NC(=O)[C@@H](NC(=O)[C@H](CC(C)C)NC(=O)[C@@H](NC(C)=O)[C@@H](C)CC)C(C)C)[C@@H](C)CC)C(=O)NCCCCC(NC(=O)C(CCCCNC(=O)CCCCCNC(=O)[C@H](CCCCN)NC(=O)[C@@H](NC(=O)[C@@H](NC(=O)[C@H](CC(C)C)NC(=O)[C@@H](NC(C)=O)[C@@H](C)CC)C(C)C)[C@@H](C)CC)NC(=O)CCCCCNC(=O)[C@H](CCCCN)NC(=O)[C@@H](NC(=O)[C@@H](NC(=O)[C@H](CC(C)C)NC(=O)[C@@H](NC(C)=O)[C@@H](C)CC)C(C)C)[C@@H](C)CC)C(N)=O)[C@@H](C)CC)C(C)C", "note": "(some centres unmarked) [Tetravalent ILVIK] (I: Ac-ILVIK[Ahx][ξK][ξK]-NH2 / II: Ac-ILVIK[Ahx][ξK] / III: Ac-ILVIK[Ahx] / IV: Ac-ILVIK[Ahx]; amide I:7-IV:C, I:8-II:C, II:7-III:C)", "values": [{"measurement": "tumor growth, multivalent ILVIK", "setting": "[2]", "result": "inhibits tumor growth"}, {"measurement": "tumor growth, multivalent ILVIK", "setting": "[2]; listed as tetravalent ILVIK", "result": "more effectively inhibited tumor progression"}, {"measurement": "Kd", "setting": "TLR4/MD-2 complex", "result": "4.58 to 8.78", "unit": "nM"}, {"measurement": "induction of cytokines/chemokines", "setting": "[3]", "result": "suppress the induction of cytokines/chemokines in both tumor cells and macrophages"}]}, {"compound": "FQEFLILVIK [Peptide #3, S100A8-derived peptide […] from the carboxyl terminal region]", "values": [{"measurement": "TLR4/MD-2 binding of peptide", "setting": "human TLR4/MD-2 complex", "result": "most strongly bound to the TLR4/MD-2 complex among a series of S100A8-derived peptides"}, {"measurement": "TLR4/MD-2 binding of peptide", "setting": "human TLR4/MD-2 complex; listed as peptide #3", "result": "could bind to TLR4/MD-2"}, {"measurement": "competition for S100A8-TLR4/MD-2 binding", "setting": "S100A8-TLR4/MD-2 complex", "result": "competed for binding between S100A8 and the TLR4/MD-2 complex"}, {"measurement": "IL-8 induction by peptide alone (agonism)", "setting": "SW480 cells [4]; no S100A8", "result": "failed to induce IL-8 production"}, {"measurement": "S100A8-mediated VEGF induction (mRNA)", "setting": "SW480 cells [4]; qPCR, normalized to β-actin", "result": "suppressed S100A8-induced VEGF induction"}, {"measurement": "S100A8-mediated IL-8 induction (mRNA)", "setting": "SW480 cells [4]; qPCR, normalized to β-actin, *P < 0.05 vs S100A8", "result": "reduces the expression of S100A8-mediated IL-8 induction"}, {"measurement": "S100A8-mediated IL-8 secretion", "setting": "SW480 cells [5]", "result": "suppresses S100A8-mediated IL-8 secretion"}, {"measurement": "S100A8-mediated VEGF secretion", "setting": "SW480 cells [5]", "result": "suppresses"}, {"measurement": "S100A8-mediated IL-8 secretion", "setting": "SW480 cells [5]; listed as peptide#3", "result": "suppressed"}, {"measurement": "S100A8-mediated cell migration", "setting": "SW480 cells [6]", "result": "significantly inhibited"}]}]}
